From the supplement of paper PMC11451515

Assays:
Settings in all cases: 48 h
SEM cells [1] = assay: cell viability relative to DMSO control; higher = less cytotoxic
Procedure, shortened: (§1)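 Viability was expressed as a per-plate percentage of DMSO wells, with cell-free wells as background. Leukemia cells (NOMO1 or SEM at 500 cells/well, P12-Ichikawa at 1000 cells/well) were adapted for at least four passages in each medium and seeded in 1536-well plates (5 μl). Library compounds in DMSO were pin-dosed over an 11-point threefold series from 47 μM to 0.79 nM, and CellTiter-Glo One luminescence was read after 48 h at 37°C.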

NOMO1 = assay: as above
Procedure, shortened: as §1

P12-Ichikawa [2] = assay: as above
Procedure, shortened: as §1

SEM cells [3] = assay: AUC of viability dose-response curve (% viability x log10 dose units); higher = less sensitive
Procedure, shortened: (§2)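 Over 48 h at 37°C, leukemia cells in 1536-well plates (500 or 1000 cells/well), adapted to each medium, received library compounds in DMSO at 11 threefold doses from 47 μM to 0.79 nM. CellTiter-Glo One luminescence, normalised per plate to DMSO and cell-free wells, was fitted by a four-parameter log-logistic function of log10 dose. The area under the curve was then integrated by trapezoidal rule, after scaling curves above full viability and removing those that failed quality control.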

P12-Ichikawa [4] = assay: as above
Procedure, shortened: as §2

C/C=C(\C)C(=O)N[C@@H](c1ccccc1)[C@@H](O)C(=O)O[C@H]1C[C@@]2(O)[C@@H](OC(=O)c3ccccc3)[C@@H]3[C@]4(OC(C)=O)CO[C@@H]4C[C@H](O)[C@@]3(C)C(=O)[C@H](OC(C)=O)C(=C1C)C2(C)C
cell viability [%]
Settings | NOMO1 | P12-Ichikawa [2] | SEM cells [1]
HPLM + 10% dialyzed FBS, 0.000781 µM | 25.1 | 45.3 | 34
HPLM + 10% dialyzed FBS, 0.00234 µM | 23.3 | 23.3 | 24.3
HPLM + 10% dialyzed FBS, 0.00702 µM | 26.8 | 25.7 | 33.2
HPLM + 10% dialyzed FBS, 0.0211 µM | 30.3 | 15.9 | 20.6
HPLM + 10% dialyzed FBS, 0.0632 µM | 29.7 | 22.2 | 19.2
HPLM + 10% dialyzed FBS, 0.19 µM | 27.4 | 19 | 19.8
HPLM + 10% dialyzed FBS, 0.569 µM | 23.4 | 21.4 | 14.9
HPLM + 10% dialyzed FBS, 1.71 µM | 26.9 | 20.3 | 19.6
HPLM + 10% dialyzed FBS, 5.12 µM | 24.1 | 19 | 19.9
HPLM + 10% dialyzed FBS, 15.4 µM | 28.9 | 19 | 15.9
HPLM + 10% dialyzed FBS, 46.1 µM | 20.7 | 14.2 | 20.5
RPMI 5 mM glucose + 10% FBS, 0.000781 µM | 38.9 | 46.4 | 45.4
RPMI 5 mM glucose + 10% FBS, 0.00234 µM | 13.2 | 20.9 | 22.3
RPMI 5 mM glucose + 10% FBS, 0.00702 µM | 17.4 | 25.7 | 23.3
RPMI 5 mM glucose + 10% FBS, 0.0211 µM | 13.8 | 13.8 | 18.4
RPMI 5 mM glucose + 10% FBS, 0.0632 µM | 14.7 | 15.1 | 14.1
RPMI 5 mM glucose + 10% FBS, 0.19 µM | 14.3 | 17.2 | 15.5
RPMI 5 mM glucose + 10% FBS, 0.569 µM | 13 | 16.8 | 15.4
RPMI 5 mM glucose + 10% FBS, 1.71 µM | 15.6 | 16.6 | 14.9
RPMI 5 mM glucose + 10% FBS, 5.12 µM | 12.4 | 13 | 14.3
RPMI 5 mM glucose + 10% FBS, 15.4 µM | 11.3 | 13 | 12.5
RPMI 5 mM glucose + 10% FBS, 46.1 µM | 9.52 | 10.6 | 12.2
RPMI 5 mM glucose + 10% dialyzed FBS, 0.000781 µM | 47.4 | 49.5 | 32.4
RPMI 5 mM glucose + 10% dialyzed FBS, 0.00234 µM | 17.8 | 27.8 | 26.1
RPMI 5 mM glucose + 10% dialyzed FBS, 0.00702 µM | 21.3 | 32.8 | 25
RPMI 5 mM glucose + 10% dialyzed FBS, 0.0211 µM | 20.2 | 23 | 17.5
RPMI 5 mM glucose + 10% dialyzed FBS, 0.0632 µM | 17.5 | 23 | 16.2
RPMI 5 mM glucose + 10% dialyzed FBS, 0.19 µM | 20.3 | 23.4 | 13.6
RPMI 5 mM glucose + 10% dialyzed FBS, 0.569 µM | 17.2 | 30.4 | 13.1
RPMI 5 mM glucose + 10% dialyzed FBS, 1.71 µM | 16.1 | 28.5 | 14.7
RPMI 5 mM glucose + 10% dialyzed FBS, 5.12 µM | 19.8 | 24.6 | 16.6
RPMI 5 mM glucose + 10% dialyzed FBS, 15.4 µM | 21.3 | 24.8 | 15.5
RPMI 5 mM glucose + 10% dialyzed FBS, 46.1 µM | 16.6 | 21.1 | 16.2

AUC of viability dose-response curve
Settings | HPLM + 10% dialyzed FBS | RPMI 5 mM glucose + 10% FBS | RPMI 5 mM glucose + 10% dialyzed FBS
P12-Ichikawa [4] | 102 | 85.3 | 130
SEM cells [3] | 104 | 85.3 | 87.7
